In patent publication US20240306646A1, “BROAD SPECTRUM PATHOGEN CONTROL IN PLANTS” (APHEA. BIO NV, priority 2021, published 2024):

Assays:
Format in all cases: cell-based
Zymoseptoria tritici = test system: Zymoseptoria tritici
Fusarium graminearum = conditions: in vitro
Puccinia striiformis = experiment: In vitro antifungal screening of strain extracts and fractions

## Takanawaene C
Zymoseptoria tritici
  growth inhibition, Zymospetoria tritici: 9% growth
Fusarium graminearum
  growth inhibition, Fusarium graminearum: 100% growth
Puccinia striiformis
  growth inhibition, Puccinia striiformis: 100% inhibition
